Laboratory results taken from patent US7358267B2, “Bis-aryl thiazole derivatives” (Amgen Inc., priority 2001, dated 2008).

Experiments:
UCP3 = UCP3 RNA induction in rat L6 cells (QPCR); type: cell-based
Protocol: Table 1 provides QPCR data (ABI 7700 Sequence Detection System) for exemplary compounds of formula I evaluated for UCP3 RNA induction in L6 cells from rats. The assay is described in Example 14.4, below.
Rat UCP3 (L6 cells) QPCR Protocol
1. (Day1) Plate 300,000 L6 cells per well (24 well plate) in Minimum Essential Medium-Alpha Medium with 2% FBS and Antibiotic/Antimycotic Solution added. Incubate for 2 days and change to fresh medium (Day3). Incubate 1 more day.
2. (Day 4) Add compound at desired concentration. Incubate for 18-20 h. 2 wells per compound. 4-wells of DMSO controls per plate.
3. (Day 5) Prepare RNA from cells: • (1) Aspirate media and lyse cells directly on plate by adding 500 μL of Trizol Reagent (Gibco BRL) to each well and passing the lysate several times through a pipette. Transfer lysate to eppendorf tubes (combining the lysate from identical compound treatments). • (2) Add 200 μL of chloroform to the 1 mL of lysate. Vortex to mix and incubate at room temp. for 2-3 min. Spin samples in a microfuge at 12,000 rpm for 15 min. at 4° C. • (3) Transfer the aqueous phase to a fresh tube. Precipitate the RNA from the aqueous phase by adding 500 μL of isopropanol and mixing well. Incubate at −20° C. for at least 15 min. Pellet the RNA by spinning at 12,000 rpm for 10 min. at 4° C. • (4) Remove the supernatant and wash the RNA pellet with 500 μL of 75% ethanol. Spin at 10,000 rpm for 5 min. at 4° C. • (5) Remove the supernatant and allow pellet to air dry briefly. Dissolve RNA in 15 μL of RNase-free water. Store at −80° C. Electrophorese some RNA to check quality.
4. QPCR (50 μL reactions in 96 well MicroAmp Optical Plate): TaqMan Gold RT-PCR Reagents (PE catalog #N808-0232): OD RNA and dilute to 5 ng/μL in RNase-free water. All samples run in duplicate with UCP3 and m18S probe/primers
Add 40 μL of Reaction Mix to 10 μL of diluted RNA (50 ng total) on QPCR plate PCR Cycling Parameters • 48° C. 30 min. • 95° C. 10 min. • 40 cycles: 95° C. 15 sec. • 58° C. 1.5 min. QPCR Primers/Probes

UCP3 protein = UCP3 protein induction in vivo in skeletal muscle after oral dosing (Western blot); settings: skeletal muscle tissue from Sprague-Dawley rats
Protocol: UCP3 protein was induced 2- to 3-fold in vivo (skeletal muscle tissue from Sprague-Dawley rats) after oral dosing with compound 1 (Western blot).
1. Isolate rat or mouse skeletal muscle and snap freeze in liquid nitrogen. Grind into a fine powder using mortar and pestle and transfer to an eppendorf tube.
2. Resuspend skeletal muscle in Buffer 1 (0.15 mM MgCl2, 10 mM KCl, 10 mM Tris-HCl, pH 6.7, stored at 4° C.).
3. Place resuspended cells on ice for 2 min. Homogenize using either Potter-Eleuhjem Teflon homogenizer and glass dounce or using hand held homogenizer for 2 min.
4. Add sucrose (1 M) to a final concentration of 0.25 M and spin at 1500 g (4000 rpm in microfuge) for 3 min. to remove nuclei.
5. Take the supernatant fraction and pellet the mitochondria by centrifugation at 10000 rpm for 10 min.
6. Resuspend pellet in 500 μl Buffer 2 (0.15 mM MgCl2, […], 10 mM Tris-HCl, pH 6.7, stored at 2-4° C.).
9. Resuspend final mitochondrial pellet in 2 7 μl Buffer 3 (0.25 M Sucrose, 10 mM Tris-acetate, pH 7.0, 3 μl 10× protease inhibitor cocktail (BMB), stored at 4° C.).
10. Determine protein concentration with BioRad protein assay dye (Bradford Reagent). 1 μl protein in 100 μl 1× Bradford Reagent. OD595 with BSA standard curve (1 μg/μl-50 μg/μl).
For antiUCP3 Westerns use 60 μg protein. Run precast 10% gels until dye front is about 1 cm from bottom of gel. […]

RXRα = biological target: T1, RXRα (Homo sapiens, UniProt P19793); test: RXRα induction in HEK 293 cells (transient transfection, luciferase reporter); type: cell-based
T1 construct: expressed in transfected cells; host or cells: HEK 293 cells
T1 sequence (P19793 1-462): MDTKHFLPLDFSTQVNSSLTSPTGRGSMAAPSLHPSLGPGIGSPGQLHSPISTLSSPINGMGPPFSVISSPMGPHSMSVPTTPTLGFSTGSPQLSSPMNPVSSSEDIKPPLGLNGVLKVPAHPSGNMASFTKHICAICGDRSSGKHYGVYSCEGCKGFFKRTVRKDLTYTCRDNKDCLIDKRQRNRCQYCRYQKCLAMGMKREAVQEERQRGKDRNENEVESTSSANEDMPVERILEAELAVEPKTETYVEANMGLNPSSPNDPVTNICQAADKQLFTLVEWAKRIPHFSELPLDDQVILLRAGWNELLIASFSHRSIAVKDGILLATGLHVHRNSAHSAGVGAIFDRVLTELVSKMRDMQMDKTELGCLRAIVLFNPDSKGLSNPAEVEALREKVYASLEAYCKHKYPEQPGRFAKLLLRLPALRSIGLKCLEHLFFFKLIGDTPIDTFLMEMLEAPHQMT
Protocol: Table 2 provides QPCR data (ABI 7700 Sequence Detection System) for exemplary compounds of formula I evaluated for RXR induction in HEK 293 cells, following a general protocol, briefly described below. See Naeger et al. (1999) J. Biol. Chem. 274:1875-1878 for a related cell-based assay.
DNA constructs containing a luciferase reporter plasmid and another plasmid which contained an activation domain (e.g., RXRα) were transiently transfected into HEK 293 cells. The cells were treated with the compounds and luciferase activity was measured using a luminometer. Fold induction was determined by comparing the luciferase activity of treated cells to the activity of untreated cells.

RXRα RNA induction at 3 μM (RXRα; 3 μM): + (+ denotes 5-fold or less induction)
RXRα RNA induction at 10 μM (RXRα; 10 μM): + (+ denotes 5-fold or less induction)
melting point: 226.7 to 227.5 °C
SMILES: Cc1c(C(=O)O)cnn1-c1nc(-c2cccc(C(F)(F)F)c2)cs1 [Compound 1, 1-[4-(3-(Trifluoromethyl)phenyl)thiazol-2-yl]-5-methylpyrazole-4-carboxylic acid]
fold induction at 10 µM (UCP3): > 10
UCP3 protein induction (UCP3 protein): 2- to 3 fold
RXRα RNA induction at 1 μM (RXRα; 1 μM): ++ (++ denotes greater than 5-fold induction)
